In patent publication US20140135310A1, “SULPHONAMIDE DERIVATIVES OF ALICYCLIC AMINES FOR THE TREATMENT OF CENTRAL NERVOUS SYSTEM DISEASES” (Adamed Sp. z o.o., priority 2011, published 2014):

Columns and labels:
[1] = tested on: α1 adrenergic receptors (rat cerebral cortex); assay: Radioligand binding assay, adrenergic α1 receptors; details: test compound 1×10^−6 M
How it was run: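 Values derive from radioligand displacement, with non-specific binding defined by excess cold ligand and detection by scintillation. Hill-fit IC50s were converted to Ki via Cheng-Prusoff using Scatchard-derived Kd; percent inhibition of control specific binding also reported.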

[2] = target: T1, H1 histaminergic receptors (Homo sapiens, UniProt P35367); assay: Radioligand binding assay, histaminergic H1 receptors; details: human recombinant (HEK-293 cells), [3H]pyrilamine 1 nM
T1 construct: expressed in transfected cells; host or cells: HEK-293 cells
Text: (§1) The specific ligand binding to the receptors is defined as the difference between the total binding and the non-specific binding determined in the presence of the excess of unlabelled ligand.
(§2) The results are expressed as a percent of control specific binding ((measured specific binding/control specific binding)×100) and as a percent inhibition of control specific binding (100−((measured specific binding/control specific binding)×100)) obtained in the presence of the test compounds. The specific ligand binding to the receptors is defined as the difference between the total binding and the nonspecific binding determined in the presence of an excess of unlabelled ligand. Scintillation counting was the method of detection of ligand binding. The IC50 values (concentration causing a half-maximal inhibition of control specific binding) were determined by non-linear regression analysis of the competition curves generated with mean replicate values using Hill equation curve fitting (Y=D+[(A−D)/(1+(C/C50)nH)], where Y=specific binding, D=minimum specific binding, A=maximum specific binding, C=compound concentration, C50=IC50, and nH=slope factor). This analysis was performed using a software developed at Cerep (Hill software) and validated by comparison with data generated by the commercial software SigmaPlot® 4.0 for Windows® (© 1997 by SPSS Inc.). The inhibition constants (Ki) were calculated using the Cheng Prusoff equation (Ki=IC50/(1+(L/KD)), where L=concentration of radioligand in the assay, and KD=affinity of the radioligand for the receptor). A scatchard plot was used to determine the Kd.
Experimental conditions for tests are given in Table 14, and results of tests for representative compounds are presented in Table 15.

M3 muscarinic receptors = target: T2, M3 muscarinic receptors (Homo sapiens, UniProt P20309); assay: Radioligand binding assay, muscarinic M3 receptors; details: test compound 1×10^−6 M
T2 construct: expressed in transfected cells; host or cells: CHO cells
Text: as §1, §2
Experimental conditions for tests are given in Table 10, and results of tests for representative compounds are given in Table 11.

[3] = target: T3, serotonin transporter (SERT) (Homo sapiens, UniProt P31645); assay: Radioligand binding assay, serotonin transporter (SERT); details: binding assay, test compound 1×10^−6 M
T3 construct: expressed in transfected cells; host or cells: CHO cells
How it was run: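 Radioligand competition binding with scintillation detection; specific binding is total minus binding under excess unlabelled ligand. Reported as % of control specific binding or % inhibition; IC50 from Hill-equation non-linear regression of competition curves, and Ki via Cheng-Prusoff using radioligand concentration and Scatchard-derived KD.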

5-HT2A receptor = target: T4, 5-HT2A receptor (Homo sapiens, UniProt P28223); assay: Radioligand binding assay, serotoninergic 5-HT2A receptors; details: binding assay result in %, Table 5a
T4 construct: purchased PerkinElmer
How it was run: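 Radioligand competition binding with scintillation counting; nonspecific binding defined by excess unlabelled ligand. Data as percent inhibition of control specific binding. IC50 by Hill-equation fit of competition curves; Ki by Cheng-Prusoff, with radioligand Kd from Scatchard plot.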

[4] = target: dopaminergic receptors D3 (Homo sapiens, UniProt P35462); assay: Radioligand binding assay, dopaminergic D3 receptors; details: test compound 1×10^−6 M
How it was run: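 Competition radioligand binding at human D2, D3 and D4.4 receptors, detected by scintillation counting; nonspecific binding defined with excess unlabelled ligand. Results as percent inhibition of control specific binding; IC50 by Hill-equation nonlinear regression; Ki via Cheng-Prusoff, with radioligand KD from Scatchard plot.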

[5] = target: dopaminergic receptors D2 (Homo sapiens, UniProt P14416); assay: Radioligand binding assay, dopaminergic D2 receptors; details: binding assay, test compound 1×10^−6 M
How it was run: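 Radioligand displacement was measured by scintillation counting, with non-specific binding defined in the presence of excess unlabelled ligand. Competition curves were fitted to the Hill equation to give IC50, and Ki was derived by the Cheng–Prusoff equation.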

receptors D4.4 = target: T5, receptors D4.4 (Homo sapiens, UniProt P21917); assay: Radioligand binding assay, dopaminergic D4 (D4.4) receptors; details: test compound 1×10^−6 M
T5 sequence (P21917 1-419): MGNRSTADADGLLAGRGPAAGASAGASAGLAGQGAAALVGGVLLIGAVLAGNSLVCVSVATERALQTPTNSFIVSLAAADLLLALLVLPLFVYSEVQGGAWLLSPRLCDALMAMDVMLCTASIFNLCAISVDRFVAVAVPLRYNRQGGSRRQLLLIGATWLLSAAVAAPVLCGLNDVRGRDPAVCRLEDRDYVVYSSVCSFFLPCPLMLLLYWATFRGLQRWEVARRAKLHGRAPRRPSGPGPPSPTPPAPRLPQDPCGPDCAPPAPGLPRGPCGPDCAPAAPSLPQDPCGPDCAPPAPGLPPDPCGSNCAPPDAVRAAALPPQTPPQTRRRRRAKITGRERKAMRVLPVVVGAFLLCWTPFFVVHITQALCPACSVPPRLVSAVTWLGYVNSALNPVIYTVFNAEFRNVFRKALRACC
Text: as §1, §2
Experimental conditions for tests are given in Table 1, the results of tests for representative compounds are given in Tables 2a and 2b (receptors D2 and D3) and in Table 3 (receptors D4).

5-HT6 receptor = target: T6, 5-HT6 receptor (Homo sapiens, UniProt P50406); assay: Radioligand binding assay, serotoninergic 5-HT6 receptors; details: binding assay result in %, Table 5a;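 further: test compound at 1 µM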
T6 construct: purchased PerkinElmer
How it was run: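 Values are Ki from Cheng–Prusoff, taking IC50 from Hill nonlinear regression of competition curves and KD from a Scatchard plot. Specific binding was total minus binding with excess unlabelled ligand. Radioligand displacement was detected by scintillation counting, and data were also reported as percent of control specific binding.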

Chain of dopaminergic receptors D3 (P35462 whole entry): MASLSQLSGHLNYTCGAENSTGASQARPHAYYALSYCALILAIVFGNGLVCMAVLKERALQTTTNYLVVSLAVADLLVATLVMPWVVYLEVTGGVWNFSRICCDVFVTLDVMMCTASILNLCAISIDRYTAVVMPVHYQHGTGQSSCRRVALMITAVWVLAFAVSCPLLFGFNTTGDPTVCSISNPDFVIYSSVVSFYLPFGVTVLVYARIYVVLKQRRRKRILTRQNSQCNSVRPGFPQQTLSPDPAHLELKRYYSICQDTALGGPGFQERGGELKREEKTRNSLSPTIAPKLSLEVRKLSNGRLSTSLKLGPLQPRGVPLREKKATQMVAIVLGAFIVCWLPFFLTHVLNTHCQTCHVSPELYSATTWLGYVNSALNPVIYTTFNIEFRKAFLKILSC
Chain of dopaminergic receptors D2 (P14416 whole entry): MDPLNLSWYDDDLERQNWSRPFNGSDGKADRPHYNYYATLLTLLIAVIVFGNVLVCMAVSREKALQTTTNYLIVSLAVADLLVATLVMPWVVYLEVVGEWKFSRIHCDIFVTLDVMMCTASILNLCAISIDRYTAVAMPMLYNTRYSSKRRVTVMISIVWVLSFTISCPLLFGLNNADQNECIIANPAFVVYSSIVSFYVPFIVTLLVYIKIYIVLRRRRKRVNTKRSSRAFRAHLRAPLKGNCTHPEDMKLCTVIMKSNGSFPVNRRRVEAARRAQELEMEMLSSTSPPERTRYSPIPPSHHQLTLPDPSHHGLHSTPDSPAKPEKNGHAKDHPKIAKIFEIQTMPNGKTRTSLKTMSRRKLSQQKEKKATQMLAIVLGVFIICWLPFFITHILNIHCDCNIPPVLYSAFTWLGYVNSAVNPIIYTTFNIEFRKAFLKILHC
T3 sequence (P31645 whole entry): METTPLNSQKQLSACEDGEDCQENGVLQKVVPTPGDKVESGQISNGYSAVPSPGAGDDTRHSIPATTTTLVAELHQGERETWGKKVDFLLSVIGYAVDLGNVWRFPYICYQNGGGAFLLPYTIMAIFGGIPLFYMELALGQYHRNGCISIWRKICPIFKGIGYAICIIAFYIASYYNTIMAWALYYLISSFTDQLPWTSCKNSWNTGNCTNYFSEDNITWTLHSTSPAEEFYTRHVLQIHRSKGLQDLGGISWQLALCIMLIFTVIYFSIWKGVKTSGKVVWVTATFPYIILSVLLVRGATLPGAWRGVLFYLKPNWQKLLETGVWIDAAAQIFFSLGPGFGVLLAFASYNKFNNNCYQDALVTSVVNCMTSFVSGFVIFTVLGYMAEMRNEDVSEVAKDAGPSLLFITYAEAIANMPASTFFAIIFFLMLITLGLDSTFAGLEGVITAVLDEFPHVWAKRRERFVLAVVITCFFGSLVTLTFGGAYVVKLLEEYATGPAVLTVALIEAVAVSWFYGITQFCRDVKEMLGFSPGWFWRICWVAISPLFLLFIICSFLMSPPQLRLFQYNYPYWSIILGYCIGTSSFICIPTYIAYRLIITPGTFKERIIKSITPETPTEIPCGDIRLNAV
T6 sequence (P50406 whole entry): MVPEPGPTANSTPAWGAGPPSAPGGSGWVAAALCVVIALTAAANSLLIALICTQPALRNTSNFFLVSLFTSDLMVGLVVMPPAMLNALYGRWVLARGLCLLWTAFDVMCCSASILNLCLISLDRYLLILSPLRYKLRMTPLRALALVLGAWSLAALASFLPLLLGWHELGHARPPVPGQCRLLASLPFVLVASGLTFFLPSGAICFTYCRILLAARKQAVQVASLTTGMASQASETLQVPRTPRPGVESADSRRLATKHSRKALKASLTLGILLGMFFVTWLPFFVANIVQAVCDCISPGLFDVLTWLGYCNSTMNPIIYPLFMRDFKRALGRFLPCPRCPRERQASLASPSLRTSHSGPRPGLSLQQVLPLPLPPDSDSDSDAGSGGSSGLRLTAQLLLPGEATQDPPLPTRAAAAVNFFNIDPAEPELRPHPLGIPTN
T2 sequence (P20309 whole entry): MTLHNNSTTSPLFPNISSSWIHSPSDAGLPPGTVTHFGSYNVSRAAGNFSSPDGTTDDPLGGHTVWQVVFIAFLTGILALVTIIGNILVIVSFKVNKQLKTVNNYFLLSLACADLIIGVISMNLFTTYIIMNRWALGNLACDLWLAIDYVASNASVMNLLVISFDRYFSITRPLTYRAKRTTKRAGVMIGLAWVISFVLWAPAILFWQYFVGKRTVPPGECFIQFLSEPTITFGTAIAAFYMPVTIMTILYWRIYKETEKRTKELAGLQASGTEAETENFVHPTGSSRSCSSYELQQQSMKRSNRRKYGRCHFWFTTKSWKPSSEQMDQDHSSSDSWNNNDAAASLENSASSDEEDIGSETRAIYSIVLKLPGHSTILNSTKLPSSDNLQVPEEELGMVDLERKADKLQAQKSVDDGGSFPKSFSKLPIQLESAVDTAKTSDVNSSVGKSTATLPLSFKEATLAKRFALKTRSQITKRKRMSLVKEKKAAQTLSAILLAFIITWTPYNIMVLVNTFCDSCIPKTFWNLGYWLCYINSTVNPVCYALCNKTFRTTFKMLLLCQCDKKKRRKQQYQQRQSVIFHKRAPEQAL
T1 sequence (P35367 whole entry): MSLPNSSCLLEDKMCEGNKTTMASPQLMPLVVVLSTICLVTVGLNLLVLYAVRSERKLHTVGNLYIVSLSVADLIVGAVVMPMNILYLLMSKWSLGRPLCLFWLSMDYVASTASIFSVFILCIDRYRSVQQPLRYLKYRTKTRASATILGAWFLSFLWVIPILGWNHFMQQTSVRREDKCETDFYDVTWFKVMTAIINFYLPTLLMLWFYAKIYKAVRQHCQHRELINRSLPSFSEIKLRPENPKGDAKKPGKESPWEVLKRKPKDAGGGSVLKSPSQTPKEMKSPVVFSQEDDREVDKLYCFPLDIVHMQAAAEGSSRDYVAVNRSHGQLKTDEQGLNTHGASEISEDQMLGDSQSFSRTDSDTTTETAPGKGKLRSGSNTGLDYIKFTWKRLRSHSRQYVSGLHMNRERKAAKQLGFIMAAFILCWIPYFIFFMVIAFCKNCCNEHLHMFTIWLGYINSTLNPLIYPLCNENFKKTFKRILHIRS
T4 sequence (P28223 whole entry): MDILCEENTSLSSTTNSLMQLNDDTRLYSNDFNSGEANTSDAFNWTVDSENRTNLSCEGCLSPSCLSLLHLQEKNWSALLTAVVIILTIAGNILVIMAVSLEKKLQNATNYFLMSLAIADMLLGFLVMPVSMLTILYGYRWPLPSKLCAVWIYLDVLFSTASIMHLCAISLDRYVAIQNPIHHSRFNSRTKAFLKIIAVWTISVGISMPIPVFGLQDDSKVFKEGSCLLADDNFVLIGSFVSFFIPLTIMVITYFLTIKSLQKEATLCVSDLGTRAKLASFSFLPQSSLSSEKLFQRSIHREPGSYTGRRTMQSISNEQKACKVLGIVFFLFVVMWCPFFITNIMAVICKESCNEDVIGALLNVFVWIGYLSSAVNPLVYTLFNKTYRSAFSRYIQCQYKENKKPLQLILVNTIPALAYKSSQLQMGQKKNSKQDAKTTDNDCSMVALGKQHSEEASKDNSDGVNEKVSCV

Row | Molecule | α1 [%] [1] [%] | inhibition at 1 µM [2] [%] | inhibition at 1 µM (M3 muscarinic receptors) [%] | inhibition at 1 µM [3] [%] | inhibition at 1 µM (5-HT2A receptor) [%] | inhibition at 1 µM [4] [%] | inhibition at 1 µM [5] [%] | inhibition at 1 µM (receptors D4.4) [%] | inhibition at 1 µM (5-HT6 receptor) [%] | H1 [%] [2] [%] | M3 [%] (M3 muscarinic receptors) | SERT [%] [3] [%] | D3 [%] [4] [%] | D2 [%] [5] [%] | D4.4 [%] (receptors D4.4) | 5-HT6 [%] (5-HT6 receptor)
1 | O=S(=O)(NC1CCN(CCCc2noc3cc(F)ccc23)C1)c1cc2ccc(F)cc2s1 (stereo not shown) [Compound 234, 6-Fluoro-N-[1-[3-(6-fluoro-1,2-benzoxazol-3-yl)propyl]pyrrolidin-3-yl]benzothiophene-2-sulphonamide] | 92 | 75 | 17 | 65 | 100 | 94 | 99 | 70 | 98 | – | – | – | – | – | – | –
2 | N-[1-[3-(6-Fluoro-1,2-benzoxazol-3-yl)propyl]pyrrolidin-3-yl]-1-methyl-imidazole-4-sulphonamide [Compound 217] | 40 | – | – | – | – | – | – | – | – | 46 | 6 | 90 | 84 | 96 | 72 | 98
3 | COc1ccc2cc(S(=O)(=O)NC3CCN(CCCc4noc5cc(F)ccc45)C3)ccc2c1 (stereo not shown) [Compound 227, N-[1-[3-(6-Fluoro-1,2-benzoxazol-3-yl)propyl]pyrrolidin-3-yl]-6-methoxy-naphthalene-2-sulphonamide] | 85 | 69 | 13 | 69 | – | 96 | 97 | 88 | 94 | – | – | – | – | – | – | –
4 | O=S(=O)(NC1CCN(CCCc2noc3cc(F)ccc23)C1)c1cc2ccccc2o1 (stereo not shown) [Compound 216, N-[1-[3-(6-Fluoro-1,2-benzoxazol-3-yl)propyl]pyrrolidin-3-yl]benzofuran-2-sulphonamide] | 84 | 61 | 28 | 53 | – | 85 | 98 | 87 | 97 | – | – | – | – | – | – | –
5 | O=S(=O)(NC1CCN(CCCc2noc3cc(F)ccc23)C1)c1csc2ccccc12 (stereo not shown) [Compound 26, N-[1-[3-(6-Fluoro-1,2-benzoxazol-3-yl)propyl]pyrrolidin-3-yl]-benzothiophene-3-sulphonamide] | 87 | 44 | 11 | 66 | – | 81 | 98 | 101 | 98 | – | – | – | – | – | – | –
6 | Cc1c(S(=O)(=O)NC2CCN(CCCc3noc4cc(F)ccc34)C2)sc2ccc(Cl)cc12 (stereo not shown) [Compound 29, 5-Chloro-N-[1-[3-(6-fluoro-1,2-benzoxazol-3-yl)propyl]pyrrolidin-3-yl]-3-methyl-benzothiophene-2-sulphonamide] | 18 | 59 | 30 | 44 | – | 85 | 97 | 16 | 92 | – | – | – | – | – | – | –
